The subject of data set [1] is human embryonic stem cell derived neural stem cells (NSCs). Description: Neural stem cell proliferation assay (neurogenesis assay, ATP levels by CellTiterGlo). The format is cell-based. The settings on record: Homo sapiens, Neural stem cell, 96 h; compound concentration at which 150% activity of control (100%) is reached; NSC proliferation by ATP (CellTiterGlo) after 4 days incubation; dose response 8 μM to 8 nM. On the procedure:
Neural Stem Cell Proliferation Assay
Neurogenic properties of small molecules are determined based on the proliferation of human embryonic stem cell derived neural stem cells (NSCs) which were derived via a dual smad inhibition as previously described (Chambers, S. M., et al., Highly efficient neural conversion of human ES and iPS cells by dual inhibition of SMAD signaling, Nature biotechnology, 2009. 27(3): p. 275-80.)
Compounds respond is measured by the increase in cells based on ATP levels (Promega:CellTiterGlo®) after an incubation period of 4 days.
NSCs are thawed and expanded over 3 passages. On the 14th day, NSCs are seeded in Polyornithin/Laminin coated 384 well plates at a cell density of 21,000 cells/cm^2 in a media volume of 38 μl.
4 hours after cell seeding, compound solutions are added at a volume of 2 μl. Stock solutions of the compounds (water, 5% DMSO) are diluted to obtain a dose response (11 points, dilution factor is 2), ranging from 8 μM to 8 nM. Controls are run to consistently determine the neurogenic properties of the cells: • Negative (neutral) control is cell culture Media (final DMSO concentration: 0.25%). • Positive controls are: • 1. cell culture Media+100 ng/ml FGF2 (final DMSO concentration: 0.1%) • 2. cell culture Media+20 ng/ml EGF (final DMSO concentration: 0.1%) • 3. cell culture Media+100 ng/ml Wnt3a (final DMSO concentration: 0.1%)
After 4 days incubation at 37° C., 5% CO2, the amount of ATP per well is quantified. The ATP concentration is proportional to the cell number. ATP is quantified by using the Promega CellTiterGlo® kit. The CellTiterGlo® reagents contain a cell lysis buffer, a thermo stable luciferase (UltraGlo™ recombinant luciferase), magnesium and luciferin. Luciferin reacts with ATP producing oxyluciferin, AMP and light. The luminescence signal is proportional to the ATP content.
The value of negative (neutral) control is determined for each assay plate by taking the average of 16 negative control wells. The neurogenic compound response is calculated for each compound as (compound/Negative Control)*100.
The values of EC150 from the dose response curve are determined for each test compound. The EC150 is the compound concentration at which 150% activity of control (100%) is reached.

Each structure is given as a SMILES string.

For the compound `Cn1c(C(N)=O)cc2cc(C#N)cc(-c3ccc(Cl)cc3Cl)c21` [Example 63, 5-Cyano-7-(2,4-dichlorophenyl)-1-methylindole-2-carboxamide], the melting point worked out at 222.5 °C. Moreover, the EC (150% of control) in data set [1] was 0.21 µM.

For `Cc1c(C(N)=O)n(C)c2c(-c3ccc(F)cc3F)cc(F)cc12` [Example 64, 7-(2,4-Difluorophenyl)-5-fluoro-1,3-dimethylindole-2-carboxamide], the melting point was 192 °C. The same compound registered an EC (150% of control) in data set [1] of 0.091 µM.

In turn, `Cc1cc(-c2cc(C#N)cc3cc(C(N)=O)[nH]c23)ccc1F` [Example 66, 5-Cyano-7-(4-fluoro-3-methylphenyl)-1H-indole-2-carboxamide] yielded a melting point of 247 °C. The compound also gave an EC (150% of control) in data set [1] of 0.62 µM.

In turn, `Cn1c(C(N)=O)cc2cc(C#N)cc(-c3ccc([N+](=O)[O-])cc3)c21` [Example 67, 5-Cyano-1-methyl-7-(4-nitrophenyl)-indole-2-carboxamide] had a melting point of 236 °C. Besides, the EC (150% of control) in data set [1] turned out to be 2.05 µM.

`N#Cc1cc(-c2ccc([N+](=O)[O-])cc2)c2[nH]c(C(N)=O)cc2c1` [Example 68, 5-Cyano-7-(4-nitrophenyl)-1H-indole-2-carboxamide] had a melting point of 269 °C. Besides, the EC (150% of control) in data set [1] stood at 0.071 µM.

For the compound `N#Cc1cc(-c2ccnc(Cl)c2)c2[nH]c(C(N)=O)cc2c1` [Example 70, 7-(2-Chloropyridin-4-yl)-5-cyano-1H-indole-2-carboxamide], the melting point is 297 °C. This compound also showed an EC (150% of control) in data set [1] of 0.14 µM.

The compound `COc1ccc(-c2cc(C#N)cc3cc(C(N)=O)n(C)c23)cc1` [Example 71, 5-Cyano-7-(4-methoxyphenyl)-1-methylindole-2-carboxamide] gave a melting point of 206.5 °C. The same compound had an EC (150% of control) in data set [1] of 0.21 µM.

As to `COc1ccc(-c2cc(C#N)cc3cc(C(N)=O)[nH]c23)cc1` [Example 72, 5-Cyano-7-(4-methoxyphenyl)-1H-indole-2-carboxamide], the melting point was determined as 255 °C. Further, the EC (150% of control) in data set [1] was found to be 0.19 µM.

`Cn1c(C(N)=O)cc2cc(C#N)cc(-c3ccc(OC(F)(F)F)cc3)c21` [Example 73, 5-Cyano-1-methyl-7-[4-(trifluoromethoxy)phenyl]indole-2-carboxamide]: the melting point is 176 °C. In data set [1], this compound displayed an EC (150% of control) of 7.5 µM.

`Cc1ccc(-c2cc(F)cc3c(C)c(C(N)=O)[nH]c23)cc1` [Example 74, 5-Fluoro-3-methyl-7-(4-methylphenyl)-1H-indole-2-carboxamide] yielded a melting point of 192 °C. Moreover, the EC (150% of control) in data set [1] worked out at 0.17 µM.

`Cc1c(C(N)=O)[nH]c2c(-c3ccc(F)c(F)c3F)cc(F)cc12` [Example 75, 5-Fluoro-3-methyl-7-(2,3,4-trifluorophenyl)-1H-indole-2-carboxamide] returned a melting point of 209 °C. This compound also yielded an EC (150% of control) in data set [1] of 0.082 µM.

For `COc1ccc(-c2cc(F)cc3c(C)c(C(N)=O)[nH]c23)cc1` [Example 76, 5-Fluoro-7-(4-methoxyphenyl)-3-methyl-1H-indole-2-carboxamide], the melting point was found to be 217 °C. The EC (150% of control) in data set [1] worked out at 0.009 µM.

For the compound `Cc1c(C(N)=O)[nH]c2c(-c3ccc(Cl)cc3F)cc(F)cc12` [Example 77, 7-(4-Chloro-2-fluorophenyl)-5-fluoro-3-methyl-1H-indole-2-carboxamide], the melting point is 216 °C. Also, the EC (150% of control) in data set [1] stood at 0.022 µM.

For the compound `Cc1c(C(N)=O)[nH]c2c(-c3ccncc3)cc(F)cc12` [Example 78, 5-Fluoro-3-methyl-7-pyridin-4-yl-1H-indole-2-carboxamide], the melting point came out at 270 °C. The same compound yielded an EC (150% of control) in data set [1] of 0.053 µM.

Broadly, the melting point is the temperature of the solid-liquid transition.
